Experimental data taken from patent publication US4073900A, “11β-FLUOROPREGNENES” (Schering Aktiengesellschaft, priority 1975, dated 1978).

Experiments:
seminal vesicles = experiment: antiandrogen test, seminal vesicle weight in testosterone propionate-treated male castrated rats; type: in vivo; conditions: daily dosage s.c. over 7 days, 0.1 mg testosterone propionate daily s.c., halves organ weight caused by testosterone propionate
Protocol: The antiandrogenic activity was tested on male castrated rats weighing about 100 g. Starting with 1 week after castration, the test compound was administered in staggered doses subcutaneously over a period of 7 days. Over the same time period, the animals received daily 0.1 mg. of testosterone propionate subcutaneously. On the eighth day, the animals were sacrificed, and the weights of the seminal vesicles were determined. As the ED50, the daily dosage was determined which reduced the organ weight caused solely by testosterone propionate to one-half.

infantile female rabbits = experiment: Clauberg test, progestational activity (McPhail values) after oral administration to infantile female rabbits; type: in vivo
Protocol: For the progestational effect, the McPhail values were determined in the usual Clauberg test after oral administration to infantile female rabbits. The minimum amount required to achieve a positive effect is expressed by the McPhail value of 1.5.

[1] = oral, dose 0.001 mg, infantile female rabbits
[2] = oral, dose 0.003 mg, infantile female rabbits
[3] = oral, dose 0.01 mg, infantile female rabbits

**Q.** Which results are given for CC(=O)O[C@]1(C(C)=O)CC[C@H]2[C@@H]3C=C(Cl)C4=CC(=O)[C@@H]5C[C@@H]5[C@]4(C)[C@H]3[C@@H](F)C[C@@]21C [A, 17-acetoxy-6-chloro-11β-fluoro-1α,2α -methylene-4,6-pregnadiene-3,20-dione]?
**A.** Antiandrogenic Activity ED50 Seminal Vesicle (seminal vesicles): 0.3 to 1.0 mg; Clauberg test, comparison with compound B (infantile female rabbits; compared with the conventional compound B): superior; Progestational Activity, McPhail (infantile female rabbits; [1]): 1.1; Progestational Activity, McPhail (infantile female rabbits; [2]): 2.0; Progestational Activity, McPhail (infantile female rabbits; [3]): 3.4

**Q.** Which results are given for CC(=O)O[C@]1(C(C)=O)CC[C@H]2[C@@H]3C=C(Cl)C4=CC(=O)[C@@H]5C[C@@H]5[C@]4(C)[C@H]3CC[C@@]21C [B, 17-acetoxy-6-chloro-1α,2α -methylene-4,6-pregnadiene-3,20-dione, reference compound]?
**A.** Antiandrogenic Activity ED50 Seminal Vesicle (seminal vesicles): 0.1 to 0.3 mg; Progestational Activity, McPhail (infantile female rabbits; [1]): 1.0; Progestational Activity, McPhail (infantile female rabbits; [2]): 1.5; Progestational Activity, McPhail (infantile female rabbits; [3]): 2.9; threshold dose (McPhail 1.5) for the progestational activity (infantile female rabbits; oral, infantile female rabbits, minimum amount for positive effect): 0.003 mg
